{"source": "patent US20220230723A1", "about": "“Electronically Supervised Administration of a Pharmaceutical Composition” (Celon Pharma S.A., priority 2019, published 2022)", "key": {"[1]": {"experiment": "Literature pharmacokinetics after intravenous infusion", "assay_type": "in vivo", "conditions": "human, plasma, 0.2 mg/kg; 0.20 mg/kg 40 minutes intravenous infusion, predicted on the basis of literature data", "method": "Administration route with currently expected minimum level of metabolites is an intravenous one. After intravenous infusion of racemic ketamine at 0.5 mg/kg for 40 minutes, the parent drug maintains its systemic concentration about 200 ng/ml for about 40 minutes, afterwards the concentration falls down quickly with a half-period below 2 hours. Simultaneously, norketamine reaches its maximum concentration at the level of 10-20% of ketamine concentration. The percentage of area-under-curve (AUC) norketamine to ketamine is about 20-40%."}, "[2]": {"conditions": "cited from earlier work"}, "[3]": {"conditions": "cited from earlier work", "remark": "listed apart in the source"}, "[4]": {"conditions": "cited from earlier work", "remark": "listed apart in the source"}, "[5]": {"conditions": "nebulized saline solution, inhalation; cited from earlier work"}, "NMDA receptor": {"tested_on": "NMDA receptor", "conditions": "cited from earlier work"}, "[6]": {"conditions": "after oral administration of ketamine"}, "[7]": {"conditions": "after intravenous infusion of racemic ketamine"}}, "note": "Counter-ions that a name gives are not always drawn.", "data": [{"molecule": "CN[C@]1(c2ccccc2Cl)CCCCC1=O", "note": "[esketamine]", "values": [{"measurement": "concentration at 40 min", "setting": "[1]", "value": "60 to 100", "unit": "ng/mL"}, {"measurement": "antidepressant effects", "setting": "[2]; TRD patients, 40-minute i.v. infusion of 0.20 mg/kg or 0.40 mg/kg (Singh et al.)", "value": "rapid onset of robust antidepressant effects"}]}, {"molecule": "CNC1(c2ccccc2Cl)CCCCC1=O", "note": "(racemic) [ketamine]", "values": [{"measurement": "bioavailability", "setting": "[3]; orally administered", "value": "16-20%"}, {"measurement": "share of patients with treatment-resistant depression responsive to treatment", "setting": "[2]; human, in vivo", "value": "about ⅔"}, {"measurement": "half-period of concentration fall", "setting": "[4]; after intravenous infusion 0.5 mg/kg for 40 minutes", "value": "below 2 hours"}, {"measurement": "systemic concentration of parent drug", "setting": "[4]; intravenous infusion 0.5 mg/kg for 40 minutes, maintained about 40 minutes", "value": "about 200 ng/ml"}]}, {"molecule": "CN[C@]1(c2ccccc2Cl)CCCCC1=O", "note": "[esketamine hydrochloride]", "values": [{"measurement": "inhaled bioavailability", "setting": "[5]", "value": "reduced due to both dose-independent and dose-dependent impairment of pulmonary uptake"}]}, {"molecule": "NC1(c2ccccc2Cl)CCCCC1=O", "note": "(stereo not drawn) [norketamine]", "values": [{"measurement": "activity on NMDA receptor relative to ketamine", "setting": "NMDA receptor", "value": "many times less active than ketamine"}, {"measurement": "AUC for norketamine relative to ketamine", "setting": "[3]; [6]", "value": "exceeding 1000%"}, {"measurement": "norketamine level as % of ketamine level", "setting": "[3]; [6]", "value": "500-1000%"}, {"measurement": "maximum concentration as % of ketamine concentration", "setting": "[4]; [7]", "value": "10-20%"}, {"measurement": "percentage of AUC norketamine to ketamine", "setting": "[4]; [7]", "value": "20-40%"}]}]}
